In article PMC10447463, “Data-mining unveils structure–property–activity correlation of viral infectivity enhancing self-assembling peptides” (Nature Communications, 2023):

What was measured:
[1] = test system: HIV-1 infection of TZM-bl cells; experiment: HIV-1 infectivity enhancement assay, β-galactosidase luminescence; format: cell-based; settings: for Rel-EFC / Log10 Infection Rel EFC: 1.3 µM peptide; for Rel-EFC: infection relative to EF-C (QCKIKQIINMWQ = 1); for Log10 Infection Rel EFC: log10 of infection relative to EF-C; for Log Infectivity: Log10 infection relative to EF-C, TZM-bl cells, asymmetric std dev errors; for Log10 Infection Rel EF-C: HIV-1 infection of TZM-bl cells; for Abs. Inf.: absolute infection signal, HIV-1 on TZM-bl cells, β-galactosidase luminescence; for Log10 Inf. rel. to EF-C: log10 of HIV-1 infection of TZM-bl cells relative to EF-C (EF-C = 0); for Log10 of Rel to EFC (Feb2021): Log10 of infection relative to EF-C, all peptides of FigS16
[2] = Zeta-potential measurement; format: physicochemical
How it was run: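 PBS pH 7.4, 1 mg/mL peptide (DMSO stock), 1 d RT aggregation; diluted in 1 mM KCl pre-read; mobility → zeta (Smoluchowski); n = 3, 2 expts averaged.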

[3] = β-sheet content by ATR-FT-IR; format: physicochemical; settings: Fig. S7 panel A; β-sheet content by ATR-FT-IR
How it was run: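 Measurements on freeze-dried PNF powders used a diamond ATR element, 64 scans each, with β-sheet fraction derived as previously reported. CR reflects loss of fluorescamine-reactive monomer after 3 kDa ultrafiltration, averaged over triplicates.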

[4] = Turbidity, derived count rate of scattered light; format: physicochemical; settings: for Count Rate / kcps: derived count rate of scattered light at 633 nm, 173°, from zeta-potential measurement, 0.1 mg/mL in 1 mM KCl after 1 d at 1 mg/mL in PBS, turbidity / microscopic aggregation, mean of triplicate
How it was run: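 One-day room-temperature aggregation at 1 mg/mL in PBS (pH 7.4) preceded measurement; samples then went into 1 mM KCl. Triplicates per sample, two independent experiments averaged.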

[5] = Turbidity, derived count rate of scattered light; format: physicochemical; settings: for Count Rate: derived count rate of scattered light (turbidity); for Log10 Count Rate: turbidity, derived count rate of scattered light, data of Figure 2D
[6] = Fig. S7 panel A (plotted against β-sheet content)
[7] = Log10 of infection rate relative to EF-C, Figure 3A source data
[8] = infection rate relative to EF-C, log10, data of Figure 2D
[9] = infection rate relative to EF-C, log10, source data of Figure 2C
[10] = zeta-potential of peptide, source data of Figure 2C
[11] = zeta-potential of the peptide assemblies, mean, Figure 3A source data
[12] = Log10 of derived count rate of scattered light (turbidity)
[13] = turbidity, Log10 of derived count rate of scattered light, Figure 3A source data
[14] = turbidity, log10 of derived count rate of scattered light
[15] = Fig. S7 panel B (plotted against CR), rounded to two decimals

Substance	Rel-EFC [1]	Log10 Infection Rel EFC [1]	Log Infectivity [1, 6]	Log10 Infection Rel EF-C [1, 7]	Log10 Infection Rel EF-C [1, 8]	Log10 Infection Rel EF-C [1, 9]	Abs. Inf. [1]	Log10 Inf. rel. to EF-C [1]	Zeta-Pot. [2]	Zeta-Potential / mV [2, 10] [mV]	Zeta-Potential / mV [2, 11] [mV]	b -sheet / % [3] [%]	Log10 Count Rate [4, 12]	Count Rate / kcps [4] [kcps]	Log10 Count Rate [4, 13]	Log10 Count Rate [4, 14]	Count Rate [5]	Log10 Count Rate [5]	Log Infectivity [1, 15]	Log10 of Rel to EFC (Feb2021) [1]
HGEHGE	0,01	-2,19	-2.193	-2.19	-2.193	-2.193	140	-2.193	-12.6	-8.73	-12.6	9.5428	2.381	241	2.381	2.381	240.6	2.381		
RGECKFKFQF	0,33	-0,48	-0.4776	-0.48	-0.4776	-0.4776	7411	-0.4776	23.97	22.32	23.97	46.18	2.341	219	2.341	2.341	219.3	2.341	-0.48	-0.48
CKIKQIINM	0,5	-0,3	-0.3035	-0.3	-0.3035	-0.3035	11280	-0.3035	12.9	13.87	12.9	46	3.957	9058	3.957	3.957	9058	3.957	-0.3	-0.3
KYKGAIIGNIK	0	-2,51	-2.508	-2.51	-2.508	-2.508	80	-2.508	-9.14	-5.205	-9.14	44.63	1.644	44	1.644	1.644	44.1	1.644		
